Results published in patent publication US20250302743A1, “METHODS OF TREATING DERMATOLOGICAL CONDITIONS AND SYMPTOMS THEREOF” (KAMARI PHARMA LTD., priority 2022, published 2025).

What was measured:
DS-Nh mice = test: DS-Nh mouse model, topical dosing (scratching behavior, skin histology); format: in vivo
Source text: DS-Nh mice raised under conventional conditions spontaneously develop dermatitis and skin abnormalities characterized by hyperkeratosis, reduced basal keratinocytes proliferation, defective differentiation, and keratinization of skin appendages.
At the end of the study, the mice were sacrificed, and skin biopsies were paraffin-embedded, stained with hematoxylin and eosin (H&E) and assessed microscopically (FIG. 7).

male C57BL/6J mice = test: Acetone-ether-water (AEW)-induced pruritus model, oral dosing; format: in vivo, mouse
Experimental: (§1) The efficacy of KM-001 was assessed in an acetone-ether-water (AEW)-induced pruritus model in male C57BL/6J mice, a model induced by daily treatment of an acetone/ether (1:1) mixture and water applied to the animal's cheek. KM-001 (10 mg/kg, 1 mg/kg, 0.1 mg/kg and 0.01 mg/kg) was administered orally to 20 mice. The amount of time spent scratching and the number of bouts during the 20 minutes were recorded by an observer. Blood and skin samples were collected at 0, 0.5 hr, 1 hr and 1.5 hr post dosing.

[1] = Plasma concentration in AEW pruritus study, oral dosing; format: in vivo, mouse; conditions: mice, oral 0.1 mg/kg
Experimental: as §1

[2] = Blood concentrations in minipig dermal toxicity study (13 weeks); format: in vivo; conditions: for AUC0-tlast / Cmax: MiniPig, 6 g/day
Experimental: (§2) I: Blood concentrations of KM-001 were evaluated using a validated analytical method as part of the toxicity studies in minipigs and rats.

[3] = 28-day oral repeat dose toxicity study, systemic exposure; format: in vivo, rat; conditions: for AUC0-tlast / Cmax: Rat, oral
Experimental: as §2

[4] = Estimated human systemic exposure and safety margins (dose-linear extrapolation from minipig PK)
Experimental: as §2

[5] = Saturated solubility, shake flask method, UPLC-UV; format: physicochemical; conditions: for Saturated Solubility API: RT, 24 hours
Experimental: Saturated solubility was determined using the shake flask method with excess API at room temperature (RT). It was assumed that equilibrium was attained after 24 hours, and excess solid was separated by ultrafiltration prior to dilution and quantification. Quantification of KM-001 for saturated solubility studies was performed using a qualified UPLC-UV analytical method.

keratinocytes = conditions: found in US 2002/0332697 A1, cited from earlier work
TRPV3 = TRPV3 (Homo sapiens, UniProt Q8NET8); conditions: read-out: IC50 (inhibit TRPV3); found in US 2002/0332697 A1; cited from earlier work
[6] = 0.5% formulation, 2.25 mg/kg*day, Week 13
[7] = 1.0% formulation, 4.5 mg/kg*day, Week 13

TRPV3, sequence (Q8NET8 whole entry, species assumed): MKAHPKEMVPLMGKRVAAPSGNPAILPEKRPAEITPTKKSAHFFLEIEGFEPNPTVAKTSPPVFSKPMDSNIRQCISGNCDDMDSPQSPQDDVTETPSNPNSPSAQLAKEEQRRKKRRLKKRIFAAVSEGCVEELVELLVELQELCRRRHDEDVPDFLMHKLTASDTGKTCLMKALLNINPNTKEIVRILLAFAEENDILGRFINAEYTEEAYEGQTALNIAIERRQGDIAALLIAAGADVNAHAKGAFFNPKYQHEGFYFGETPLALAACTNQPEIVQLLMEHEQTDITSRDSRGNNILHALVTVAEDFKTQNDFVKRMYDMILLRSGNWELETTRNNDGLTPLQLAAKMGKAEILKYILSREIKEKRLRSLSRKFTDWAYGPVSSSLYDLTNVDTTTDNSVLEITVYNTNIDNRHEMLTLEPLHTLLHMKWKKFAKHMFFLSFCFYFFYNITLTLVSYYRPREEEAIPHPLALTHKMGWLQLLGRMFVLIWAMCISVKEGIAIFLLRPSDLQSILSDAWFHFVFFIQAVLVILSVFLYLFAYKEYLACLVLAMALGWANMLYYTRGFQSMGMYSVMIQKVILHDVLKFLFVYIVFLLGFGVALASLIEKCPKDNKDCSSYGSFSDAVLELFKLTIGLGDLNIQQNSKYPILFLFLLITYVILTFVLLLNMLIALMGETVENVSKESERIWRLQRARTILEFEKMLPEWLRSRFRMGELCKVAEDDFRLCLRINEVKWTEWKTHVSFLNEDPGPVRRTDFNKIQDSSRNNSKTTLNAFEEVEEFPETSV

Molecule: C=CC[C@@H]1/C=C(\C)C[C@H](C)C[C@H](OC)[C@H]2O[C@@](O)(C(=O)C(=O)N3CCCC[C@H]3C(=O)O[C@H](/C(C)=C/[C@@H]3CC[C@@H](O)[C@H](OC)C3)[C@H](C)[C@@H](O)CC1=O)[C@H](C)C[C@@H]2OC [tacrolimus 0.1%, tacrolimus]
- reduction in scratch (DS-Nh mice; day 14, twice daily topical treatment): 20%
- mice exhibiting normalization of skin pathology (DS-Nh mice; two weeks of treatment, H&E histology, partial normalization for tacrolimus): 40 % of mice

Molecule: (S)-2-(1,3-dimethyl-2-6-dioxo-2,3-1h-purin-7(6H)-N-(4-(3-Fluoro-4-2methylpyrrolidin-1-yl)phenyl)thiazol-2-yl)acetamide [KM-001]
- scratching bouts (male C57BL/6J mice; oral 0.01 mg/kg): trended to decrease
- scratching time (male C57BL/6J mice; oral 0.01 mg/kg): trended to decrease
- scratching time (male C57BL/6J mice; oral 0.1 mg/kg, p<0.001): significantly decreased
- scratching bouts (male C57BL/6J mice; oral 0.1 mg/kg, p<0.01): significantly decreased
- maximum plasma concentration (Cmax) [1]: 1.34 ng/mL
- AUC0-tlast ([2]; 0.1% formulation, 0.45 mg/kg*day, Week 13): 16.6 ng·h/mL
- Cmax ([2]; 0.1% formulation, 0.45 mg/kg*day, Week 13, mean male and female): 2.3 ng/mL
- AUC0-tlast [2, 6]: 73.7 ng·h/mL
- Cmax [2, 6]: 5.3 ng/mL
- AUC0-tlast [2, 7]: 159 ng·h/mL
- Cmax [2, 7]: 10.8 ng/mL
- AUC ([2]; minipigs, 4.5 mg KM-001/kg/day): 159.1 ng·h/mL
- NOAEL ([3]; 28-day oral repeat dose toxicity study in the rat): 10 mg/kg/day
- AUC0-tlast ([3]; 1 mg/kg*day, Day 28): 479 ng·h/mL
- Cmax ([3]; 1 mg/kg*day, Day 28, mean male and female): 97 ng/mL
- AUC0-tlast ([3]; 5 mg/kg*day, Day 28): 4570 ng·h/mL
- Cmax ([3]; 5 mg/kg*day, Day 28): 525 ng/mL
- Cmax ([3]; 10 mg/kg*day (NOAEL), Day 28): 968 ng/mL
- AUC0-tlast ([3]; 10 mg/kg*day, Day 28): 8360 ng·h/mL
- AUC ([3]; rat, 28-day oral repeat dose, at NOAEL of 10 mg/kg/day): 8357 ng·h/mL
- safety margin for AUC, rat vs estimated human exposure ([4]; 0.3%): 836 fold
- AUC, estimated human systemic exposure ([4]; 0.3% cream): approx. 10 ng/mL*h
- safety margin for AUC, rat vs estimated human exposure ([4]; 1%): 261 fold
- AUC, estimated human systemic exposure ([4]; 1% cream): ~32 ng·h/mL
- safety margin for Cmax, rat vs estimated human exposure ([4]; 1% cream-gel): approx. 242 fold
- Dose MiniPig API (safety factor) ([4]; Human dermal 0.3% formulation vs minipig dose): 34
- Dose MiniPig API (safety factor) ([4]; Human dermal 1.0% formulation vs minipig dose): 11
- solubility in triglycerides and fatty alcohols [5]: relatively soluble
- Saturated Solubility API ([5]; M1: Miglyol 812 N 33.3%, Arlamol E 62.5%, Phenoxy-2-ethanol 4.2%): 13.1 % w/w
- Saturated Solubility API ([5]; M2: Miglyol 812 N 8%, Arlamol E 15%, Macrol-82 77%): 0.7 % w/w
- Saturated Solubility API ([5]; M3: Miglyol 812 N 10%, Kollicream OD 10%, Macrol-82 75%, Kollicream OA 5%): 1.5 % w/w
- Saturated Solubility API ([5]; M6: Miglyol 812 N 20%, Arlamol E 16%, Kollicream OA 10%, Macrol-82 54%): 4.0 % w/w
- Saturated Solubility API ([5]; M10: Miglyol 812 N 20%, Crodamol IPM 21.85%, Kollicream OA 5%, Light Mineral Oil 53.15%): 1.6 % w/w
- Saturated Solubility API ([5]; M13: Miglyol 812 N 47.83%, Kollicream OD 52.17%): 13.0 % w/w
- Saturated Solubility API ([5]; M14: Miglyol 812 N 45.83%, Kollicream OD 50%, Phenoxy-2-ethanol 4.17%): 14.0 % w/w
- Ca^+2 flux in keratinocytes (keratinocytes): significantly reduced
- differentiation markers (keratinocytes; keratinocytes): normalized
- IC50 (TRPV3): ~3 nM
